Measured values reported in patent US12715849B2, “Herbicidal tetrazole compounds” (SYNGENTA CROP PROTECTION AG, priority 2020, dated 2026).

Assays:
Experiment in all cases: Glasshouse herbicidal test, pre- and post-emergence (Table B1)
Type in all cases: in vivo
[1] = tested on: Amaranthus retoflexus (AMARE); details: 130 g/h, evaluated after 13 days; for percentage damage caused to the plant, POST Application AMARE: post-emergence; for percentage damage caused to the plant, PRE Application AMARE: pre-emergence
Experimental: (§1) Seeds of a variety of test species are sown in standard soil in pots (Lolium perenne (LOLPE), Amaranthus retoflexus (AMARE), Amaranthus palmeri (AMAPA), Ablution theophrasti (ABUTH), Setaria faberi (SETFA), Echinochloa crus-galli (ECHCG), Ipomoea hederacea (IPOHE)). After cultivation for one day (pre-emergence) or after 8 days cultivation (post-emergence) under controlled conditions in a glasshouse (at 24/16° C., day/night; 14 hours light; 65% humidity), the plants are sprayed with an aqueous spray solution derived from the formulation of the technical active ingredient in acetone/water (50:50) solution containing 0.5% Tween 20 (polyoxyethelyene sorbitan monolaurate, CAS RN 9005-64-5). Compounds are applied at 130 g/h unless otherwise indicated. The test plants are then grown in a glasshouse under controlled conditions in a glasshouse (at 24/16° C., day/night; 14 hours light; 65% humidity) and watered twice daily. After 13 days for pre and post-emergence, the test is evaluated for the percentage damage caused to the plant. The biological activities are shown in the following table on a five-point scale (5=80-100%; 4=60-79%; 3=40-59%; 2=20-39%; 1=0-19%).

Setaria faberi (SETFA) = details: 130 g/h, evaluated after 13 days; for percentage damage caused to the plant, POST Application SETFA: post-emergence; for percentage damage caused to the plant, PRE Application SETFA: pre-emergence
Experimental: as §1

[2] = tested on: Echinochloa crus-galli (ECHCG); details: 130 g/h, evaluated after 13 days; for percentage damage caused to the plant, POST Application ECHCG: post-emergence; for percentage damage caused to the plant, PRE Application ECHCG: pre-emergence
Experimental: as §1

[3] = tested on: Ipomoea hederacea (IPOHE); details: 130 g/h, evaluated after 13 days; for percentage damage caused to the plant, POST Application IPOHE: post-emergence; for percentage damage caused to the plant, PRE Application IPOHE: pre-emergence
Experimental: as §1

[4] = tested on: Ablution theophrasti (ABUTH); details: 130 g/h, evaluated after 13 days; for percentage damage caused to the plant, POST Application ABUTH: post-emergence; for percentage damage caused to the plant, PRE Application ABUTH: pre-emergence
Experimental: as §1

[5] = tested on: Amaranthus palmeri (AMAPA); details: 130 g/h, evaluated after 13 days; for percentage damage caused to the plant, POST Application AMAPA: post-emergence; for percentage damage caused to the plant, PRE Application AMAPA: pre-emergence
Experimental: as §1

CCn1nnnc1NC(=O)c1ccc(OC(F)(F)F)c(NS(=O)(=O)CC)c1Cl [Compound 1.002, 2-chloro-3-(ethylsulfonylamino)-N-(1-ethyltetrazol-5-yl)-4-(trifluoromethoxy)benzamide]
5 (5=80-100%): percentage damage caused to the plant, POST Application AMARE [1] | percentage damage caused to the plant, PRE Application AMARE [1] | percentage damage caused to the plant, POST Application SETFA (Setaria faberi (SETFA)) | percentage damage caused to the plant, PRE Application SETFA (Setaria faberi (SETFA)) | percentage damage caused to the plant, POST Application ECHCG [2] | percentage damage caused to the plant, PRE Application ECHCG [2] | percentage damage caused to the plant, PRE Application IPOHE [3] | percentage damage caused to the plant, POST Application ABUTH [4] | percentage damage caused to the plant, PRE Application ABUTH [4]
4 (4=60-79%): percentage damage caused to the plant, POST Application IPOHE [3]

CC(C)S(=O)(=O)Nc1c(OC(F)F)ccc(C(=O)Nc2nnnn2C)c1Cl [Compound 1.013]
4 (4=60-79%): percentage damage caused to the plant, PRE Application SETFA (Setaria faberi (SETFA))
5 (5=80-100%): percentage damage caused to the plant, POST Application AMARE [1] | percentage damage caused to the plant, PRE Application AMARE [1] | percentage damage caused to the plant, POST Application SETFA (Setaria faberi (SETFA)) | percentage damage caused to the plant, POST Application ECHCG [2] | percentage damage caused to the plant, PRE Application ECHCG [2] | percentage damage caused to the plant, POST Application IPOHE [3] | percentage damage caused to the plant, PRE Application IPOHE [3] | percentage damage caused to the plant, POST Application ABUTH [4] | percentage damage caused to the plant, PRE Application ABUTH [4]

Cn1nnnc1NC(=O)c1ccc(OC(F)F)c(NS(=O)(=O)C2CC2)c1Cl [Compound 1.067]
4 (4=60-79%): percentage damage caused to the plant, POST Application AMARE [1] | percentage damage caused to the plant, PRE Application ECHCG [2] | percentage damage caused to the plant, PRE Application IPOHE [3]
3 (3=40-59%): percentage damage caused to the plant, PRE Application SETFA (Setaria faberi (SETFA))
5 (5=80-100%): percentage damage caused to the plant, PRE Application AMARE [1] | percentage damage caused to the plant, POST Application SETFA (Setaria faberi (SETFA)) | percentage damage caused to the plant, POST Application ECHCG [2] | percentage damage caused to the plant, POST Application IPOHE [3] | percentage damage caused to the plant, POST Application ABUTH [4] | percentage damage caused to the plant, PRE Application ABUTH [4]

CCN(c1c(OC(F)(F)F)ccc(C(=O)Nc2nnnn2C)c1Cl)S(C)(=O)=O [Compound 1.079]
5 (5=80-100%): percentage damage caused to the plant, POST Application AMAPA [5] | percentage damage caused to the plant, PRE Application AMAPA [5] | percentage damage caused to the plant, POST Application AMARE [1] | percentage damage caused to the plant, PRE Application AMARE [1] | percentage damage caused to the plant, POST Application SETFA (Setaria faberi (SETFA)) | percentage damage caused to the plant, PRE Application SETFA (Setaria faberi (SETFA)) | percentage damage caused to the plant, PRE Application ECHCG [2]
4 (4=60-79%): percentage damage caused to the plant, POST Application IPOHE [3] | percentage damage caused to the plant, PRE Application IPOHE [3]

CC(C)CS(=O)(=O)Nc1c(OC(F)(F)F)ccc(C(=O)Nc2nnnn2C)c1Cl [Compound 1.074]
4 (4=60-79%): percentage damage caused to the plant, PRE Application ECHCG [2]
3 (3=40-59%): percentage damage caused to the plant, PRE Application SETFA (Setaria faberi (SETFA)) | percentage damage caused to the plant, PRE Application IPOHE [3]
5 (5=80-100%): percentage damage caused to the plant, POST Application AMAPA [5] | percentage damage caused to the plant, PRE Application AMAPA [5] | percentage damage caused to the plant, POST Application AMARE [1] | percentage damage caused to the plant, PRE Application AMARE [1] | percentage damage caused to the plant, POST Application SETFA (Setaria faberi (SETFA)) | percentage damage caused to the plant, POST Application ECHCG [2] | percentage damage caused to the plant, POST Application IPOHE [3]

CCS(=O)(=O)N(C)c1c(OC(F)F)ccc(C(=O)Nc2nnnn2C)c1Cl [Compound 1.087]
5 (5=80-100%): percentage damage caused to the plant, POST Application AMAPA [5] | percentage damage caused to the plant, PRE Application AMAPA [5] | percentage damage caused to the plant, POST Application AMARE [1] | percentage damage caused to the plant, PRE Application AMARE [1] | percentage damage caused to the plant, POST Application SETFA (Setaria faberi (SETFA)) | percentage damage caused to the plant, PRE Application SETFA (Setaria faberi (SETFA)) | percentage damage caused to the plant, POST Application ECHCG [2] | percentage damage caused to the plant, PRE Application ECHCG [2] | percentage damage caused to the plant, PRE Application IPOHE [3]
4 (4=60-79%): percentage damage caused to the plant, POST Application IPOHE [3]

Cn1nnnc1NC(=O)c1ccc(OC(F)(F)F)c(NS(=O)(=O)C2CC2)c1Cl [Compound 1.073]
5 (5=80-100%): percentage damage caused to the plant, POST Application AMAPA [5] | percentage damage caused to the plant, PRE Application AMAPA [5] | percentage damage caused to the plant, POST Application AMARE [1] | percentage damage caused to the plant, PRE Application AMARE [1] | percentage damage caused to the plant, POST Application SETFA (Setaria faberi (SETFA)) | percentage damage caused to the plant, PRE Application SETFA (Setaria faberi (SETFA)) | percentage damage caused to the plant, POST Application ECHCG [2] | percentage damage caused to the plant, PRE Application ECHCG [2] | percentage damage caused to the plant, POST Application IPOHE [3] | percentage damage caused to the plant, PRE Application IPOHE [3]

CCCS(=O)(=O)Nc1c(OC(F)F)ccc(C(=O)Nc2nnnn2C)c1Cl [Compound 1.069]
5 (5=80-100%): percentage damage caused to the plant, POST Application AMAPA [5] | percentage damage caused to the plant, PRE Application AMAPA [5] | percentage damage caused to the plant, POST Application AMARE [1] | percentage damage caused to the plant, PRE Application AMARE [1] | percentage damage caused to the plant, POST Application SETFA (Setaria faberi (SETFA)) | percentage damage caused to the plant, POST Application ECHCG [2] | percentage damage caused to the plant, PRE Application ECHCG [2] | percentage damage caused to the plant, POST Application IPOHE [3]
4 (4=60-79%): percentage damage caused to the plant, PRE Application SETFA (Setaria faberi (SETFA)) | percentage damage caused to the plant, PRE Application IPOHE [3]

CC(C)S(=O)(=O)Nc1c(OC(F)(F)F)ccc(C(=O)Nc2nnnn2C)c1Cl [Compound 1.076]
5 (5=80-100%): percentage damage caused to the plant, POST Application AMAPA [5] | percentage damage caused to the plant, PRE Application AMAPA [5] | percentage damage caused to the plant, POST Application AMARE [1] | percentage damage caused to the plant, PRE Application AMARE [1] | percentage damage caused to the plant, POST Application SETFA (Setaria faberi (SETFA)) | percentage damage caused to the plant, PRE Application SETFA (Setaria faberi (SETFA)) | percentage damage caused to the plant, PRE Application ECHCG [2]
3 (3=40-59%): percentage damage caused to the plant, PRE Application IPOHE [3]
4 (4=60-79%): percentage damage caused to the plant, POST Application IPOHE [3]
